Results on nine compounds are retold here after ChEMBL document CHEMBL1133002 (J Med Chem, 2000).

Each structure is given as a SMILES string.

In test [1] the test system is Mus musculus. The test can be described thus: (§1) potential antinociceptive activity initially at a screening dose of 30 mg/kg po in the mouse abdominal irritant test(MAIT) using acetylcholine bromide as irritant. It is filed as functional. As to conditions: Abdomen.
The target of test [2] is T1, Adrenergic receptor alpha-1 (Rattus norvegicus, UniProt P15823+P23944+P43140).
T1 sequence (P15823 whole entry): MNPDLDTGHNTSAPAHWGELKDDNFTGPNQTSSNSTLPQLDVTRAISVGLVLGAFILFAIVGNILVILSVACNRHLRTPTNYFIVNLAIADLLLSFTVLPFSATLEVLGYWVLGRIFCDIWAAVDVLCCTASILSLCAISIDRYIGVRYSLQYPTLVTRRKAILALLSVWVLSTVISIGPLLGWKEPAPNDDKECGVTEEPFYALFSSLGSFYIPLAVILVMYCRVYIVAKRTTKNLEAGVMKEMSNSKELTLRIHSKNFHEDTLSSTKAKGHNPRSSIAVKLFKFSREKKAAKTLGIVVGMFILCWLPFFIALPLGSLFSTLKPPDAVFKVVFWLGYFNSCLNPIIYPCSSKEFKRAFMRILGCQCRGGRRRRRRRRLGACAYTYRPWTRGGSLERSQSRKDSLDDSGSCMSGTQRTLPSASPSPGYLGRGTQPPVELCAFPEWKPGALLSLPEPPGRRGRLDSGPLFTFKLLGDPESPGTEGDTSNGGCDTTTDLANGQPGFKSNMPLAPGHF
T1 sequence (P23944 whole entry): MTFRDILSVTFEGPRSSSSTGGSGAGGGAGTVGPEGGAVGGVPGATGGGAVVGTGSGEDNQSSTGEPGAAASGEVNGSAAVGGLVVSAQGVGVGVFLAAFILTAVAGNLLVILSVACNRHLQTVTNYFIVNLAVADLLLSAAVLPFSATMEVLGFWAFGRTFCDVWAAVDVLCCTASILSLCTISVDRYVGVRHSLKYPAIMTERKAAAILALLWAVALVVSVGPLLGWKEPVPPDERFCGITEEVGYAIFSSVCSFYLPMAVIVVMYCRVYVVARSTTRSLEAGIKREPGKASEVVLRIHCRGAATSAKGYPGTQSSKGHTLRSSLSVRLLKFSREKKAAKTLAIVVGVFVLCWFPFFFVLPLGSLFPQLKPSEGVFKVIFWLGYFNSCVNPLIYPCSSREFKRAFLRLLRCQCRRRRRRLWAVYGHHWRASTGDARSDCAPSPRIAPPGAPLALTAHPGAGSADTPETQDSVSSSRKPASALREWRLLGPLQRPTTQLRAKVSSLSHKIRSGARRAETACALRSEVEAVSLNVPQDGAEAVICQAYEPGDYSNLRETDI
T1 sequence (P43140 whole entry): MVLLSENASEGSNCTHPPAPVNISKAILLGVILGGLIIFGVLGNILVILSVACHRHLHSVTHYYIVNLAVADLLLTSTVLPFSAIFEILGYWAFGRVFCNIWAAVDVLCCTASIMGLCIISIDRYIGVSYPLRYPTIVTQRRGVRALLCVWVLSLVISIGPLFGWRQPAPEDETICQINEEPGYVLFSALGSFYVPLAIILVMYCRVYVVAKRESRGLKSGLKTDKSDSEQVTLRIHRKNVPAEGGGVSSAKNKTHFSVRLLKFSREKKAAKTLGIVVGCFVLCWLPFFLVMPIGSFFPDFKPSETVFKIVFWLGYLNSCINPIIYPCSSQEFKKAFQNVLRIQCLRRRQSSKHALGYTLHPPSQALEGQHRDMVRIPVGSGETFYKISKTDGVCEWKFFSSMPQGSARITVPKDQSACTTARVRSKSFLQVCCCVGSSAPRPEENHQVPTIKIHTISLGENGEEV
The test can be described thus: in vitro alpha-1 adrenergic receptor binding assay from rats, using RX 821002 as the displaceable ligand. Type of test: protein assay.

Test [3] deals with T2, Alpha-2B adrenergic receptor (Rattus norvegicus, UniProt P19328).
T2 sequence (P19328 whole entry): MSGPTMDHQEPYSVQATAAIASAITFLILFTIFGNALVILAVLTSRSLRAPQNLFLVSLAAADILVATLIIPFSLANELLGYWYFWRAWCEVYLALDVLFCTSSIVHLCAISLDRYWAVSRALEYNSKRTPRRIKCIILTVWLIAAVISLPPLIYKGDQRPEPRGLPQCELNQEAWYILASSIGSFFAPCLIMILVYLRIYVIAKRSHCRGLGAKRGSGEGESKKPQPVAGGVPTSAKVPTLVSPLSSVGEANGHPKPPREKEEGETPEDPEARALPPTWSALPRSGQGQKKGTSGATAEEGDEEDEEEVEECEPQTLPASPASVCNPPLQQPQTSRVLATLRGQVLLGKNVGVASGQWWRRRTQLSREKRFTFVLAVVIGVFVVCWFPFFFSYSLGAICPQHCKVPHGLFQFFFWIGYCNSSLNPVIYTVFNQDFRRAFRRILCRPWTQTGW
The test can be described thus: in vitro alpha-2B adrenergic receptor binding assay from rats, using RX 821002 as the displaceable ligand.

For test [4], the target named is T3, Alpha-2A adrenergic receptor (Rattus norvegicus, UniProt P22909).
T3 sequence (P22909 whole entry): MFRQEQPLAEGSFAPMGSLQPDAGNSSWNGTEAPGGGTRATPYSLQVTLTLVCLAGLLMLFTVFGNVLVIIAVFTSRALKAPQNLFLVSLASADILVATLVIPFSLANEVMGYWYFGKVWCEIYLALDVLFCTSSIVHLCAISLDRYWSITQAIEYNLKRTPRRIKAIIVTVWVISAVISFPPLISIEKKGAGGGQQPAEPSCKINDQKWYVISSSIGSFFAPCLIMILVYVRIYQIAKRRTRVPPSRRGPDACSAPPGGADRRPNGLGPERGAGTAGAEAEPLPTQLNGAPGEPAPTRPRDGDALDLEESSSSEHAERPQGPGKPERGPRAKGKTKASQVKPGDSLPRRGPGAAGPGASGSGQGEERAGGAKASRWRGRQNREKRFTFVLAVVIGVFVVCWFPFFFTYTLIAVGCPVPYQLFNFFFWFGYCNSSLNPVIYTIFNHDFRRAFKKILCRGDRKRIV
Put plainly: in vitro alpha-2A adrenergic receptor binding assay from rats, using RX 821002 as the displaceable ligand.

Test [5] has as its target T4, Alpha-2C adrenergic receptor (Rattus norvegicus, UniProt P22086).
T4 sequence (P22086 whole entry): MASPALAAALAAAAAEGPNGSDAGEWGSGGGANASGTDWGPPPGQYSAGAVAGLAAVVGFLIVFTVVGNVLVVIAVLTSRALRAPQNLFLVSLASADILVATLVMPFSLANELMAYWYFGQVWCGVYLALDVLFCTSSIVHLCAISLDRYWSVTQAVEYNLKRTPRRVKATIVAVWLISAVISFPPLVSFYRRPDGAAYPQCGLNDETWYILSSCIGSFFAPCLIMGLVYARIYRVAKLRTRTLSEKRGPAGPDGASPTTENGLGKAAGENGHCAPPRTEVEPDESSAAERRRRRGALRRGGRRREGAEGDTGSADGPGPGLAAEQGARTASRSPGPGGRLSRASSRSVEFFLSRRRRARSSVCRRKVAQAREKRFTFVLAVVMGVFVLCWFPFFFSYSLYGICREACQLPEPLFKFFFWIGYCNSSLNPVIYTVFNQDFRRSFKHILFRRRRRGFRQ
Put plainly: in vitro alpha-2C adrenergic receptor binding assay from rats, using RX 821002 as the displaceable ligand.

The next test is filed under the species Rattus norvegicus. Put plainly: ED50 value was measured using rat air-induced abdominal irritant test(RAIT). To be noted: Abdomen. Type of test: functional.
The subject of test [6] is Mus musculus. Described as §1. As to conditions: Abdomen, read-out: Inhibition.
Test [7] concerns the target T5, Alpha-2A adrenergic receptor (Rattus norvegicus) (UniProt P22909).
T5 sequence (whole entry): T3 sequence (P22909 whole entry)
Put plainly: % inhibition of alpha-2A adrenergic receptor binding at 1 uM.

For test [8], the target named is T6, Alpha-2C adrenergic receptor (Rattus norvegicus) (UniProt P22086).
T6 sequence (whole entry): T4 sequence (P22086 whole entry)
Put plainly: % inhibition of alpha-2C adrenergic receptor binding at 1 uM.

For test [9], the species on record is Mus musculus. The test can be described thus: Peroral ED50 value was measured using mouse tail flick test. Type of test: functional. As to conditions: po. (Thermal pain tests record how soon the animal reacts.)
The species entered for test [10] is Mus musculus. The test can be described thus: Peroral ED50 value was measured using mouse abdominal irritant test(MAIT). It is filed as functional. To be noted: Abdomen, po.
The species named for test [11] is Mus musculus. Put plainly: Peroral ED50 value was measured using mouse 48 degree hot plate test. It is filed as functional. As to conditions: po.

For orientation: Ki means a measure of affinity in units of concentration, obtained from inhibition or displacement. Take `c1cc(-c2c[nH]cn2)c2ccsc2c1`: the inhibition in vivo at 30 mg/kg in the test with Mus musculus [1] came out at 60%. Moreover, the inhibition constant Ki in test [2] came to 343 nM; in [3], 663 nM; in test [4], 277 nM.

What is called ED50 is the midpoint of the dose-response relation. Read a high ED50 as a need for a large dose. Regarding `c1nc(C2CCCc3sccc32)c[nH]1` (configuration not stated), in the test with Mus musculus [1], the inhibition in vivo at 30 mg/kg is 100%. Besides, the Ki stood at 110 nM in [2], 99 nM in test [3], 172 nM in test [5] and 27 nM in [4]. The compound further had an ED50 in the test listed under Rattus norvegicus of 0.9 mg/kg.

`Clc1cccc(Cl)c1NC1=NCCN1` [CLONIDINE] yielded an inhibition in vivo at 30 mg/kg in the test with Mus musculus [1] of 0.05%. Further, the ED50 in the test listed under Rattus norvegicus came to 0.1 mg/kg.

Regarding `Cc1cccc([C@H](C)c2cnc[nH]2)c1C` [DEXMEDETOMIDINE], the inhibition in vivo at 30 mg/kg with Mus musculus [6] was determined as 0.09%. Moreover, the Ki in test [4] turned out to be 5 nM. Besides, the ED50 in the test listed under Rattus norvegicus worked out at 0.12 mg/kg.

As usually defined, the inhibition is the percentage by which the read-out fell short of the control. Low values mean a response near the control, high ones a response far below the control. `c1nc(C2CCCc3ccsc32)c[nH]1` (configuration not stated) returned an inhibition in vivo at 30 mg/kg in the test with Mus musculus [1] of 73%. The compound also showed a Ki in test [2] of 91 nM. Also, the figures for the inhibition in test [7] and in test [8] were 87% and 54%, respectively.

For the compound `Cc1sc(C)c2c1CCCC2c1c[nH]cn1` (configuration not stated), the inhibition in vivo at 30 mg/kg in the test on Mus musculus [1] stood at 93%. Moreover, the Ki in test [2] is 48 nM; in [3], 141 nM; in test [5], 205 nM; in test [4] it was 68 nM. In the test listed under Rattus norvegicus, the 50% effective dose (ED50) was 7.9 mg/kg.

Consider `Cc1sc(C)c2c1CCC=C2c1c[nH]cn1`, for which the inhibition in vivo at 30 mg/kg in the test with Mus musculus [1] was found to be 40%. Further, the Ki in [2] worked out at 110 nM; in test [3], 100 nM; in test [5] it was 26 nM; in test [4], 25 nM.

`C1=C(c2c[nH]cn2)c2sccc2CC1`: the inhibition in vivo at 30 mg/kg in the test on Mus musculus [1] is 60%. The Ki stood at 399 nM in test [2], 940 nM in test [3] and 224 nM in test [4].

For `C1=C(c2c[nH]cn2)c2ccsc2CC1`, the inhibition in vivo at 30 mg/kg in the test on Mus musculus [1] stood at 100%. Also, the values for the Ki in test [2], in test [3] and in [4] were 443 nM, 621 nM and 254 nM, respectively. Besides, the ED50 in the test filed under Mus musculus [9] was 100 mg/kg; in the test listed under Mus musculus [10] it was 11.6 mg/kg; in the test listed under Mus musculus [11], 25.9 mg/kg; in the test listed under Rattus norvegicus it was 15.1 mg/kg.
